The values below come from patent publication US8710043B2, “TRPM8 antagonists and their use in treatments” (Amgen Inc., priority 2011, dated 2014).

For this assay, the target named is T1, human TRPM8 (Homo sapiens, UniProt Q7Z2W7).
T1 construct: expressed in transfected cells; host or cells: Chinese hamster ovary (CHO) cells, T-REx tetracycline-inducible system, co-transfected with aequorin
The assay is described as follows: Luminescence readout assay for measuring intracellular calcium, icilin activation. The following applies: CHO cells expressing human TRPM8, aequorin luminescence, 1 μM icilin activation; read-out: hTRPM8 IC50. The class given is cell-based. On the procedure: Luminescence Readout Assay for Measuring Intracellular Calcium.
A stable Chinese hamster ovary cell line expressing human TRPM8 was generated using tetracycline inducible T-REx™ expression system from Invitrogen, Inc. (Carlsbad, Calif.). […] Twenty four hours before the assay, cells were seeded in 96-well plates and TRPM8 expression was induced with 0.5 μg/mL tetracycline. […] Potential antagonists were added 2.5 min prior to the addition of agonist, 1 μM icilin, 100 μM L-menthol, or 1 min prior to the addition of cold buffer (<10° C.). The luminescence was measured by a CCD camera based FLASH-luminometer built by Amgen, Inc. A cooling device attached to FLASH luminometer was used for cold activation.

T1 sequence (Q7Z2W7 whole entry): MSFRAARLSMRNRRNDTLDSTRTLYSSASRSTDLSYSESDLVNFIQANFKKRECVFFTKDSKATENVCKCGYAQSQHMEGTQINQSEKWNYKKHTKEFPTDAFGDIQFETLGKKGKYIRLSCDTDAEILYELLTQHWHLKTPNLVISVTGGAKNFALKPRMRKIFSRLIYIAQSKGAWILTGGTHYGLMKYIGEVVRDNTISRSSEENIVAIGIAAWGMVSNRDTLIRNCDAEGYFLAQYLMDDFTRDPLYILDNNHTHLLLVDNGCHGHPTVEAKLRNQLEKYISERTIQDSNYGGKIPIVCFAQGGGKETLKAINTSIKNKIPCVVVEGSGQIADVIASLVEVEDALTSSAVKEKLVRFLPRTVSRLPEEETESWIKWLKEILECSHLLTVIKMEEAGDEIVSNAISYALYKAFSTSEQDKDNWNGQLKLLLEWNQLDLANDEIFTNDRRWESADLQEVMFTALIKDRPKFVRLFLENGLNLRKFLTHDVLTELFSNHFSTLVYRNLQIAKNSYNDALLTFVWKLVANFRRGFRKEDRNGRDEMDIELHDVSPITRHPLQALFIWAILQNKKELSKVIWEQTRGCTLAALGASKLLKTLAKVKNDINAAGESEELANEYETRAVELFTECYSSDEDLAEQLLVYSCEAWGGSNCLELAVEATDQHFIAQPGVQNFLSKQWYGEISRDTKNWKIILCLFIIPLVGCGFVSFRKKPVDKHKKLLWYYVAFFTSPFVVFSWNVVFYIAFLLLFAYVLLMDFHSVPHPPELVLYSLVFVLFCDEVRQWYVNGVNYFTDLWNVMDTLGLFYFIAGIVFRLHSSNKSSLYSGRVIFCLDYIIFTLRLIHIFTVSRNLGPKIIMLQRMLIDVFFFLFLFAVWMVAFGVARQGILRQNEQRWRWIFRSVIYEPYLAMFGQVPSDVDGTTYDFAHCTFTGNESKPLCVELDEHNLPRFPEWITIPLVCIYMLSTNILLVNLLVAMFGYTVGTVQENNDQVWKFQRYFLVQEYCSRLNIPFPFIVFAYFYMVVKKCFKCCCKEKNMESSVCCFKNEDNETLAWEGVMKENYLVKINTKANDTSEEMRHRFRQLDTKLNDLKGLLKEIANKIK

For the molecule `O=C(NC(c1ccc(OC(F)(F)F)c(F)c1)c1cc(F)ccc1F)c1ccc(=O)[nH]c1` (stereo not drawn) [Example 414, N-((2,5-difluorophenyl)(3-fluoro-4-(trifluoromethoxy)phenyl)methyl)-6-oxo-1,6-dihydropyridine-3-carboxamide], the IC50 (as a rule, the concentration at which inhibition is half-maximal) amounted to 150 nM. In the case of `CC1(C)C[C@H]1c1cccnc1[C@@H](NC(=O)c1ccc2cccnc2c1)c1ccc(C(F)(F)F)cc1` [Example 232, N-((S)-(3-((R)-2,2-dimethylcyclopropyl)pyridin-2-yl)(4-(trifluoromethyl)phenyl)methyl)quinoline-7-carboxamide] it was 15.9 nM; in that of `Nc1ccc(C(=O)N[C@@H](c2ccc(C(F)(F)F)cc2)c2ncccc2C(F)(F)F)cn1` [Example 134, (S)-6-amino-N-((4-(trifluoromethyl)phenyl)(3-(trifluoromethyl)pyridin-2-yl)methyl)nicotinamide], 31 nM. The result for `C[C@H](O)Cn1cc(C(=O)N[C@@H](c2ccc(OC(F)(F)F)c(F)c2)c2ncccc2F)ccc1=O` [Example 298, N-((S)-(3-fluoro-4-(trifluoromethoxy)phenyl)(3-fluoropyridin-2-yl)methyl)-1-((S)-2-hydroxypropyl)-6-oxo-1,6-dihydropyridine-3-carboxamide] reads 36.1 nM; that for `O=C(N[C@@H](c1ccc(C(F)(F)F)cc1)c1ncccc1Cl)c1ccc(=O)[nH]c1` [Example 248, (S)-N-((3-chloropyridin-2-yl)(4-(trifluoromethyl)phenyl)methyl)-6-oxo-1,6-dihydropyridine-3-carboxamide 2,2,2-trifluoroacetate], 11.9 nM. The result for `CC1(C)C[C@H]1c1cccnc1[C@@H](NC(=O)c1ccc2ncccc2c1)c1ccc(C(F)(F)F)cc1` [Example 233, N-((S)-(3-((R)-2,2-dimethylcyclopropyl)pyridin-2-yl)(4-(trifluoromethyl)phenyl)methyl)quinoline-6-carboxamide] reads 83.1 nM; that for `O=C(Cc1ccccn1)N[C@@H](c1ccc(OC(F)(F)F)c(F)c1)c1ncccc1F` [Example 288, (S)-N-((3-fluoro-4-(trifluoromethoxy)phenyl)(3-fluoropyridin-2-yl)methyl)-2-(pyridin-2-yl)acetamide], 139 nM; that for `O=C(N[C@@H](c1cnc2ccc(Cl)cc2c1)c1ncccc1C(F)(F)F)c1ccc(=O)[nH]c1` [Example 16, (S)-N-((6-chloroquinolin-3-yl)(3-(trifluoromethyl)pyridin-2-yl)methyl)-6-hydroxynicotinamide], 80.7 nM. As for `COc1ccc([C@H](NC(=O)c2ccc3cccnc3c2)c2ncccc2C(F)(F)F)cc1F` [Example 25, (S)-N-((3-fluoro-4-methoxyphenyl)(3-(trifluoromethyl)pyridin-2-yl)methyl)quinoline-7-carboxamide], the IC50 came to 36.8 nM.

In the case of `O=C(N[C@@H](c1ccc(OC(F)(F)F)c(F)c1)c1ncccc1F)c1ccc[nH]c1=O` [Example 416, (S)-N-((3-fluoro-4-(trifluoromethoxy)phenyl)(3-fluoropyridin-2-yl)methyl)-2-oxo-1,2-dihydropyridine-3-carboxamide], the IC50 came out at 54 nM. In the case of `CCn1cc(C(=O)N[C@@H](c2ccc(OC(F)(F)F)c(F)c2)c2ncccc2F)ccc1=O` [Example 366, (S)-1-ethyl-N-((3-fluoro-4-(trifluoromethoxy)phenyl)(3-fluoropyridin-2-yl)methyl)-6-oxo-1,6-dihydropyridine-3-carboxamide] it was 9.7 nM. In the case of `Cc1ncc(C(=O)N[C@@H](c2ccc(C(F)(F)F)cc2)c2ncccc2C(F)(F)F)c(N)n1` [Example 137, (S)-4-amino-2-methyl-N-((4-(trifluoromethyl)phenyl)(3-(trifluoromethyl)pyridin-2-yl)methyl)pyrimidine-5-carboxamide] it was 94.9 nM; in that of `CN(C)c1cccc(C(=O)N[C@@H](c2ccc(C(F)(F)F)cc2)c2ncccc2C(F)(F)F)c1` [Example 186, (S)-3-(dimethylamino)-N-((4-(trifluoromethyl)phenyl)(3-(trifluoromethyl)pyridin-2-yl)methyl)benzamide], 49.2 nM; in that of `O=C(N[C@@H](c1ccc(C(F)(F)F)cc1)c1ncccc1C(F)(F)F)c1ccc2nccc(O)c2c1` [Example 109, (S)-4-hydroxy-N-((4-(trifluoromethyl)phenyl)(3-(trifluoromethyl)pyridin-2-yl)methyl)quinoline-6-carboxamide 2,2,2-trifluoroacetate], 63.9 nM. The result for `O=C(N[C@@H](c1ccc(OC(F)(F)F)cc1)c1ncccc1F)c1c[nH]c(=O)cn1` [Example 354, (S)-N-((3-fluoropyridin-2-yl)(4-(trifluoromethoxy)phenyl)methyl)-5-oxo-4,5-dihydropyrazine-2-carboxamide] reads 68.1 nM; that for `Cc1cccnc1[C@@H](NC(=O)c1ccc2c(c1)OCC(=O)N2)c1ccc(C(F)(F)F)cc1` [Example 85, (S)-N-((3-methylpyridin-2-yl)(4-(trifluoromethyl)phenyl)methyl)-3-oxo-3,4-dihydro-2H-benzo[b][1,4]oxazine-7-carboxamide], 28.9 nM. On to `O=C(N[C@@H](c1ccc2ccccc2c1)c1ncccc1C(F)(F)F)c1ccc2cccnc2c1` [Example 15, (S)-N-(naphthalen-2-yl(3-(trifluoromethyl)pyridin-2-yl)methyl)quinoline-7-carboxamide], for which the concentration for half-maximal inhibition (IC50) is 117 nM. The result for `CS(=O)(=O)Nc1ccc(C(=O)N[C@@H](c2ccc(C(F)(F)F)cc2)c2ncccc2F)cc1` [Example 213, (S)-N-((3-fluoropyridin-2-yl)(4-(trifluoromethyl)phenyl)methyl)-4-(methylsulfonamido)benzamide] reads 43 nM; that for `Cc1cc([C@H](NC(=O)c2ccc(=O)[nH]c2)c2ncccc2F)ccc1F` [Example 338, (S)-N-((4-fluoro-3-methylphenyl)(3-fluoropyridin-2-yl)methyl)-6-oxo-1,6-dihydropyridine-3-carboxamide], 264 nM. The result for `O=C(N[C@@H](c1ccc(C(F)(F)F)cc1)c1ncccc1C(F)(F)F)c1ccnnc1` [Example 212, (S)-N-((4-(trifluoromethyl)phenyl)(3-(trifluoromethyl)pyridin-2-yl)methyl)pyridazine-4-carboxamide] reads 81.5 nM; that for `O=C(N[C@@H](c1ccc(C(F)(F)F)cc1)c1ncsc1Br)c1ccc2ncccc2c1` [Example 259, (S)-N-((5-bromothiazol-4-yl)(4-(trifluoromethyl)phenyl)methyl)quinoline-6-carboxamide 2,2,2-trifluoroacetate], 128 nM; that for `O=C1CCC(C(=O)N[C@@H](c2ccc(C(F)(F)F)cc2)c2ncccc2C(F)(F)F)CN1` (stereo partly drawn) [Example 65, 6-oxo-N-((S)-(4-(trifluoromethyl)phenyl)(3-(trifluoromethyl)pyridin-2-yl)methyl)piperidine-3-carboxamide], 245 nM. In the case of `O=C(N[C@@H](c1ccc(OC(F)(F)F)c(F)c1)c1ncccc1F)c1ccc(=O)n(C2COC2)c1` [Example 304, (S)-N-((3-fluoro-4-(trifluoromethoxy)phenyl)(3-fluoropyridin-2-yl)methyl)-1-(oxetan-3-yl)-6-oxo-1,6-dihydropyridine-3-carboxamide], the half-inhibitory concentration (IC50) was determined as 14.4 nM. The result for `C[C@H](O)Cn1cc(C(=O)N[C@@H](c2ccc(C(F)(F)F)cc2)c2ncccc2F)ccc1=O` [Example 300, N-((S)-(3-fluoropyridin-2-yl)(4-(trifluoromethyl)phenyl)methyl)-1-((S)-2-hydroxypropyl)-6-oxo-1,6-dihydropyridine-3-carboxamide] reads 69.7 nM; that for `Cc1ccc(C(=O)N[C@@H](c2ccc(C(F)(F)F)cc2)c2ncccc2C(F)(F)F)cn1` [Example 40, (S)-6-methyl-N-((4-(trifluoromethyl)phenyl)(3-(trifluoromethyl)pyridin-2-yl)methyl)nicotinamide], 13.4 nM. In the case of `O=C(N[C@@H](c1ccc(C(F)(F)F)cc1)c1ncccc1F)c1ccc2nccc(O)c2c1` [Example 114, (S)-N-((3-fluoropyridin-2-yl)(4-(trifluoromethyl)phenyl)methyl)-4-hydroxyquinoline-6-carboxamide 2,2,2-trifluoroacetate] it was 50.6 nM; in that of `O=C(N[C@@H](c1ccc(I)cc1)c1ncccc1C(F)(F)F)c1ccc(=O)[nH]c1` (stereo in doubt) [Example 376, N-((4-iodophenyl)(3-(trifluoromethyl)pyridin-2-yl)methyl)-6-oxo-1,6-dihydropyridine-3-carboxamide], 53 nM; in that of `Cc1cccnc1[C@@H](NC(=O)c1ccc2c(c1)OCC(=O)N2)c1ccc(OC(F)(F)F)c(F)c1` [Example 357, (S)-N-((3-fluoro-4-(trifluoromethoxy)phenyl)(3-methylpyridin-2-yl)methyl)-3-oxo-3,4-dihydro-2H-benzo[b][1,4]oxazine-7-carboxamide], 46.6 nM. The result for `O=C(N[C@@H](c1ccc(C(F)(F)F)cc1)c1ncccc1F)c1ccn2ccnc2c1` [Example 86, (S)-N-((3-fluoropyridin-2-yl)(4-(trifluoromethyl)phenyl)methyl)imidazo[1,2-a]pyridine-7-carboxamide] reads 10.2 nM; that for `O=C(N[C@@H](c1ccc(C(F)(F)F)cc1)c1ncccc1C(F)(F)F)c1cncc(O)c1` [Example 58, (S)-5-hydroxy-N-((4-(trifluoromethyl)phenyl)(3-(trifluoromethyl)pyridin-2-yl)methyl)nicotinamide], 63.9 nM.
